Data from patent US7030087B2, “Synthetic approach to designed chemical structures” (priority 1996, dated 2006).

B1: bactericidal/permeability increasing polypeptide (protein, UniProt P17213 32-487, looked up)
Bactericidal …: VNPGVVVRISQKGLDYASQQGTAALQKELKRIKIPDYSDSFKIKHLGKGHYSFYSMDIREFQLPSSQISMVPNVGLKFSISNANIKISGKWKAQKRFLKMSGNFDLSIEGMSISADLKLGSNPTSGKPTITCSSCSSHINSVHVHISKSKVGWLIQLFHKKIESALRNKMNSQVCEKVTNSVSSELQPYFQTLPVMTKIDSVAGINYGLVAPPATTAETLDVQMKGEFYSENHHNPPPFAPPVMEFPAAHDRMVYLGLSDYFFNTAGLVYQEAGVLKMTLRDDMIPKESKFRLTTKFFGTFLPEVAKKFPNMKIQIHVSASTPPHLSVQPTGLTFYPAVDVQAFAVLPNSSLASLFLIGMHTTGSMEVSAESNRLVGELKLDRLLLELKHSNIGPFPVELLQDIMNYIVPILVLPRVNEKLQKGFPLPTPARVQLYNVVLQPHQNFLLFGADVVYK
notes: purified in three column-chromatography steps

Experiments:
[1] = test system: endotoxin from E. coli 055:B5; assay: Limulus amoebocyte lysate assay (E-TOXATE), endotoxin neutralization; type: biochemical; conditions: for Endotoxin Neutralization, % neutralization: 5.0 × 10^−6 M Peptide; for Endotoxin Neutralization, % neutralization / Endotoxin Neutralizing Activity, % neutralization: 0.02 U (0.2 pg) endotoxin from E. coli 055:B5; for Endotoxin Neutralizing Activity, % neutralization: 5.0 × 10^−5 M peptide
Protocol: The peptides were tested for their ability to neutralize endotoxin. Quantitative endotoxin activities for these peptides were measured by Limulus amoebocyte lysate assay.
Limulus amoebocyte lysate assay: The ability of synthetic peptides to neutralize endotoxin was detected with the E-TOXATE kit manufactured by Sigma Chemicals (St. Louis, Mo.). […] Peptide or B/PI was incubated with LPS at room temperature for 5 min in 100 ul of a 1:2 dilution of pyrogen-free saline (pH 6.4). The reaction was started by addition of 100 ul of amoebocyte lysate and the final volume was 200 ul. Assuming a 10,000 molecular weight for LPS, the approximate molar ration of B/PI:LPS at neutralization was 3000 to 1.
The peptides were tested according to the method provided above. […] BG38L was used as a positive control in these experiments.

P. aeruginosa = assay: Bactericidal activity assay; type: cell-based, Pseudomonas aeruginosa type 1; conditions: for Bactericidal Activity, % killing: 1.2 × 10^−7 M Peptide, 5 × 105 P. aeruginosa; for Bactericidal Activity, % killing at the effective dose: at the Ed for the same peptide; for Bactericidal Activity, Ed, Effective M dose: dose at which the % in brackets was found
From the text: Bacteria: P. aeruginosa type 1 is a clinical isolate maintained in the laboratory. The isolate remains a smooth strain and was serotyped by the scheme of Homma. The Pseudomonas strain was maintained by monthly transfer on blood agar plates.
The peptides can be assayed for bactericidal activity against a variety of organisms such as Pseudomonas aeruginosa type 1, P. cepacia ATCC 25608, E. coli B, and Staphylococcus aureus 502A by standard methods.
Pseudomonas aeruginosa type 1 is a clinical isolate. The isolate remains a smooth strain and was serotyped by the scheme of Homma (Jpn. J. Exp. Med. 46:329, 1976). A rough strain, E. coli B and S. aureus 502A were obtained from Paul Quie, University of Minnesota (Minneapolis, Minn.). The characteristics of the S. aureus strain have been described by Shinefield et al. (Amer. J. Dis. Chil. 105:646, 1963). Pseudomonas cepacia ATCC 25608 can be purchased from the ATCC. S. aureus and E. coli were maintained on nutrient agar plates and the Pseudomonas strains were maintained on blood agar plates.
Pyrogen-free solutions were used throughout the assay and all methods that follow. Log phase bacteria were prepared from a culture in brain heart infusion broth (Hovde et al. Infect. Immun. 54:142–148, 1986) and bacteria were washed and resuspended in saline with adjustment to an optical density at 650 nm to provide a yield of about 3×10^8 CFU/ml. Bacteria were diluted 1:10 in 0.08M citrate phosphate buffer, pH 5.6 or pH 7.0, for use in the assay. S. aureus rapidly lost viability in the pH 5.6 buffer and was studied only at pH 7.0. Bactericidal activity was determined by dose response over peptide concentrations ranging from about […] to about 4.1×10^−9M. Bactericidal activity was determined by dose response, preferably determining LD50 by linear regression.

[2] = Table 4, dose at which the % in brackets was found

Molecule	Endotoxin Neutralization, % neutralization ([1]; Table 4)	Endotoxin Neutralization, % at the effective dose ([1]; Table 4, at the Ed)	Endotoxin Neutralization, Ed, Effective M dose [1, 2]	Bactericidal Activity, % killing (P. aeruginosa)	Bactericidal Activity, % killing at the effective dose (P. aeruginosa)	Bactericidal Activity, Ed, Effective M dose (P. aeruginosa)	Endotoxin Neutralizing Activity, % neutralization ([1]; Table 3)	Endotoxin Neutralization, % at the effective dose ([1]; Table 3, at the ED printed in the same cell)	Endotoxin neutralization, ED, Effective M dose ([1]; Table 3, dose at which the % in brackets was found)	bactericidal activity (in words) (P. aeruginosa)	approximate molar ratio B/PI:LPS at neutralization ([1]; assuming a 10,000 molecular weight for LPS)
ANIKLSVEFKLFKRHLKWKIIFKLNDGREFSLD [βpep-13]	100%	22.5%	1.2 µM	0%	(19.8), n = 3%	960 nM	–	–	–	–	–
ANIKLSVEMKFFKRHLKWKIIVKLNDGRELSLD [βpep-12]	100%	29.5%	1.2 µM	0%	(49.1), n = 5%	960 nM	–	–	–	–	–
ANIKLSVEMKLFCRHLKCKIIVKLNDGRELSLD [βpep-10]	100%	25.2%	1.2 µM	0%	(20.9), n = 7%	960 nM	–	–	–	–	–
ANIKLSVEMKLFCY^DWKVCKHVKLNDGRELSLD [βpep-11]	100%	29.5%	1.2 µM	0%	(48.0), n = 4%	960 nM	100%	29.5%	1.2 µM	–	–
ANIKLSVKWKAQKRFLKMSIIVKLNDGRELSLD [βpep-9]	100%	32.3%	1.2 µM	0%	(47.4), n = 11%	960 nM	–	–	–	–	–
ANIKLSVKWKAQKRFLKMSINVDLSDGRELSLD [βpep-2]	55.3, n = 5%	–	–	18.8, n = 6%	–	–	–	–	–	–	–
BG38: BG38L corresponds to amino acids 86–108 of B/PI; positive control (KISGKWKAQKRFLKMSGNFDLSI; UniProt P17213 117-139, looked up, fragment) [reference compound]	–	–	–	–	–	–	34.4, n = 5%	–	–	–	–
HIKELQVKMKAQKRFLKWSIIVKLNDGRELSLD [βpep-7]	77.7, n = 2%	–	–	39.1, n = 2%	–	–	–	–	–	greatest bactericidal activity	–
HIKELQVRWRAQKRFLRMSIIVKLNDGRELSLD [βpep-6]	79.3, n = 3%	–	–	8.2, n = 2%	–	–	–	–	–	–	–
KFIVTLRVIKAGPHSPTAQIIVELKNGRKLSLD [βpep-5]	70.3, n = 3%	–	–	7.4, n = 7%	–	–	70.3, n = 3%	–	–	–	–
SIQDLKVSMKLFRKQAKWKIIVKLNDGRELSLD [βpep-18]	100%	30.2%	1.2 µM	18.8, n = 1%	–	–	–	–	–	–	–
SIQDLNLSMKLFRKQAKWKIIVKLNDGRELSLD [βpep-22]	100%	21.3%	1.2 µM	35.5, n = 3%	–	–	–	–	–	greatest bactericidal activity	–
SIQDLNVSLKLFRKQAKWKIIVKLNDGRELSLD [βpep-21]	100%	40.3%	1.2 µM	13.0, n = 1%	–	–	–	–	–	–	–
SIQDLNVSMKLFRKQAKWKIILKLNDGRELSLD [βpep-15]	48.1 n = 1%	–	–	0%	23.9%	960 nM	–	–	–	–	–
SIQDLNVSMKLFRKQAKWKIIVKLNDGRELSLD [βpep-1]	42.8, n = 3%	–	–	32.0, n = 3%	–	–	42.8, n = 3%	–	–	greatest bactericidal activity	–
SIQDLNVSMKLFRKQAKWKILVKLNDGRELSLD [βpep-17]	100%	28.9%	1.2 µM	0%	40.1%	960 nM	–	–	–	–	–
SIQDLNVSMKLFRKQAKWKINVKLNDGRELSLD [βpep-4]	14.7, n = 3%	–	–	37.6, n = 3%	–	–	–	–	–	greatest bactericidal activity	–
SIQDLNVSMXLFRKQAKWKIIVKLNDGRELSLD [βpep-20]	100%	17.1%	1.2 µM	0%	0.0%	480 nM	–	–	–	–	–
B1	–	–	–	–	–	–	–	–	–	–	3000 to 1
